Columns and labels:
[1] = test system: ABCG1 mRNA in blood cells; assay: In vivo potency and maximum ABCG1 induction in cynomolgus monkey; details: po; for EC50: Macaca fascicularis, 5 h
Description: Compounds of the present invention were tested for their ability to induce the mRNA for the LXR target gene ABCG1 in blood cells when administered orally to cynomolgus monkeys.
Test compounds were formulated in 0.5% carboxymethyl cellulose (CMC, Sigma) and 2% Tween 80 (Sigma) by trituration. Each treatment group contained three male monkeys, each weighing 3.0-6.0 kg at the start of the study. Test compounds were formulated fresh each morning in vehicle, and animals that had been fasted the previous night were dosed between 7 and 7:30 AM by po gavage. For baseline blood cell mRNA determinations, 1 ml of venous blood was collected in an EDTA dry-coated tube and 1 volume of Dulbecco's Phosphate Buffered Saline without calcium or magnesium and 2 volumes of Nucleic Acid Purification Lysis Solution (Applied Biosystems, Inc.) were added. Samples were frozen at −80° C. prior to RNA isolation and analysis. Test compounds were dosed following the baseline sample collection. At 5 hr post-dose, venous blood was collected and processed as above for RNA determinations. An additional 0.5 ml of blood was also collected and analyzed for compound plasma concentrations.
Frozen samples were allowed to thaw at room temperature, and then placed on ice. Total RNA was isolated on the ABI 6100 using a pre-loaded protocol according to the manufacturer's instructions (ABI Manual #4332809 Rev. B).
qScript cDNA Synthesis Kit from Quanta Biosciences, Inc. was used to generate first-strand cDNA from each total RNA sample. 20 μl Reactions were carried out in 96-well Eppendorf AG twin-tec PCR plates on a MJ Research, Inc. model PTC-200 DNA Engine. Approximately 500 ng of total RNA was used for each reaction. Reactions were composed as follows: 4 μl 5× q-Script Reaction Mix plus 3-5 μl nuclease-free water plus 1 μl q-Script Reverse Transcriptase plus 10-12 μl input RNA. After mixing, reactions were centrifuged at 3750 rpm for 2 minutes at room temperature and run on a “q-Script” protocol (25° C. for 5 minutes, followed by 42° C. for 30 minutes, and then 85° C. for 5 minutes) in a MJ Research thermocycler. Each reaction was diluted with 30 μl of nuclease-free water and used immediately for SYBR-green Q-PCR or stored at −20° C. SYBR-Green Q-PCR reactions were performed as follows. Reaction mixtures for the LXR target gene, ABCG1, and the internal standard normalization gene ribosomal protein L30 were prepared using validated forward/reverse primer sets [ABCG1 (X-Mmul-ABCG1-F1 and X-Mmul-ABCG1-R1); ribosomal protein L30 (SYBR-hL30-F1 and SYBR-hL30-R1)]. […]
The relative amount of ABCG1 mRNA was calculated using the second derivative comparative Ct method (2^−ΔΔCt). Quantification was obtained after normalization to ribosomal protein L30 mRNA. […]

[2] = High throughput metabolic stability in human microsomes; format: in vitro ADME; details: parent compound remaining at 10 minutes, human liver microsomes
Description: The metabolic stability assay evaluates CYP-mediated metabolic stability in vitro using Human liver microsomes after a ten-minute incubation.
Test compound is received as a 3.5 mM stock solution in 100 percent DMSO. Compound is diluted to create a 50 μM acetonitrile (ACN) solution containing 1.4% DMSO, which is then used as a 100× stock for incubation with human liver microsomes. Each compound is tested in duplicate. Compound, NADPH and liver microsome solutions are combined for incubation in three steps: • 1) 152 μl of liver microsome suspension, protein concentration of 1.1 mg/ml in 100 mM NaPi, pH 7.4, 5 mM MgCl2 buffer, is pre-warmed at 37° C. • 2) 1.7 μl of 50 μM compound (98.6% ACN, 1.4% DMSO) is added to the same tube and pre-incubated at 37° C. for 5 minutes. • 3) The reaction is initiated by the addition of 17 μl of pre-warmed 10 mM NADPH solution in 100 mM NaPi, pH 7.4.
Reaction components are mixed well, and 75 μl are immediately transferred into 150 μl quench/stop solution (zero-time point, T0). Reactions are incubated at 37° C. for 10 minutes and then an additional 75 μl aliquot is transferred into 150 μl quench solution. Acetonitrile containing 100 μM DMN (a UV standard for injection quality control), is used as the quench solution to terminate metabolic reactions.
Quenched mixtures are centrifuged at 1500 rpm (˜500× g) in an Allegra X-12 centrifuge, SX4750 rotor (Beckman Coulter Inc., Fullerton, Calif.) for fifteen minutes to pellet denatured microsomes. A volume of 90 μl of supernatant extract, containing the mixture of parent compound and its metabolites, is then transferred to a separate 96-well plate for UV-LC/MS-MS analysis to determine the per cent of parent compound that is remaining in the mixture.
The mass spectrometric conditions obtained from automated infusion are used to analyze incubation samples from the Metabolic Stability assay. The injection volume is 5 μl and the flow rate is 0.8 ml/min. The gradient used is show in the table below. All samples are injected with the gradient using mobile phase A and B first. If necessary (for instance, for chromatographic reasons), samples are re-injected with the same gradient, but using mobile phase C and D. All LC-MS/MS analysis parameters are captured electronically in the raw data files.
Peak integration is performed with the Xcalibur™ software. The percent remaining calculation is performed by comparing the LC-MS/MS peak areas from the T10minute samples to those from the T0minute samples for each compound.

Row | EC50 [1] [µM] | Human Microsome % Remaining [2] [%] | Structure (SMILES) | Maximum ABCG1 Induction (fold vs. baseline ± S.E.) ([1]; blood cells, 5 hrs post-dose) [fold vs. baseline]
1 | 0.141 ± 0.053 | >80 | CC(C)(O)c1cn(-c2ccc(-c3cc(F)c(CO)c(S(C)(=O)=O)c3)cc2)c(C(C)(C)c2cccc(F)c2Cl)n1 [Example 4, 2-(2-(2-(2-chloro-3-fluorophenyl)propan-2-yl)-1-(3′-fluoro-4′-(hydroxymethyl)-5′-(methylsulfonyl)biphenyl-4-yl)-1H-imidazol-4-yl)propan-2-ol] | 
2 |  | >80 | CC(C)(O)c1cn(-c2ccc(-c3cc(F)c(CO)c(S(C)(=O)=O)c3)cc2F)c(Cc2ccccc2Cl)n1 [Example 20, 2-[2-(2-Chloro-benzyl)-1-(3,3′-difluoro-4′-hydroxymethyl-5′-methanesulfonyl-biphenyl-4-yl)-1H-imidazol-4-yl]-propan-2-ol] | 
3 | 0.63 ± 0.168 | >80 | CC(C)(O)c1cn(-c2ccc(-c3cccc(S(C)(=O)=O)c3)cc2)c(C(C)(C)c2ccccc2Cl)n1 [Compound No. 19, Table 1, WO 2007/002563, reference compound] | 12.4 ± 1.8
4 |  | >80 | CC(C)(O)c1cn(-c2ccc(-c3cc(F)c(CO)c(S(C)(=O)=O)c3)cc2F)c(C(C)(C)c2c(F)cccc2Cl)n1 [Example 7, 2-(2-(2-(2-chloro-6-fluorophenyl)propan-2-yl)-1-(3,3′-difluoro-4′-(hydroxymethyl)-5′-(methylsulfonyl)biphenyl-4-yl)-1H-imidazol-4-yl)propan-2-ol] | 
5 |  | >80 | CC(C)(O)c1cn(-c2ccc(-c3cc(F)c(CO)c(S(C)(=O)=O)c3)cc2)c(C(C)(C)c2ccccc2F)n1 [Example 1, 2-(1-(3′-fluoro-4′-(hydroxymethyl)-5′-(methylsulfonyl)biphenyl-4-yl)-2-(2-(2-fluorophenyl)propan-2-yl)-1H-imidazol-4-yl)propan-2-ol] | 
6 |  | >80 | CC(C)(O)c1cn(-c2ccc(-c3cc(F)c(CO)c(S(C)(=O)=O)c3)cc2)c(Cc2c(Cl)cccc2Cl)n1 [Example 18, 2-(2-(2,6-dichlorobenzyl)-1-(3′-fluoro-4′-(hydroxymethyl)-5′-(methylsulfonyl)biphenyl-4-yl)-1H-imidazol-4-yl)propan-2-ol] | 
7 | 0.011 ± 0.006 | >80 | CC(C)(O)c1cn(-c2ccc(-c3cc(F)c(CO)c(S(C)(=O)=O)c3)cc2F)c(C(C)(C)c2c(Cl)cccc2Cl)n1 [Example 9, 2-(2-(2-(2,6-dichlorophenyl)propan-2-yl)-1-(3,3′-difluoro-4′-(hydroxymethyl)-5′-(methylsulfonyl)biphenyl-4-yl)-1H-imidazol-4-yl)propan-2-ol] | 
8 |  | >80 | CC(C)(O)c1cn(-c2ccc(-c3cc(F)c(CO)c(S(C)(=O)=O)c3)cc2F)c(Cc2ccc(Cl)cc2Cl)n1 [Example 11, 2-(2-(2,4-dichlorobenzyl)-1-(3,3′-difluoro-4′-(hydroxymethyl)-5′-(methylsulfonyl)biphenyl-4-yl)-1H-imidazol-4-yl)propan-2-ol] | 
9 |  | >80 | CC(C)(O)c1cn(-c2ccc(-c3cc(F)c(CO)c(S(C)(=O)=O)c3)cc2F)c(Cc2ccccc2F)n1 [Example 16, 2-(1-(3,3′-difluoro-4′-(hydroxymethyl)-5′-(methylsulfonyl)biphenyl-4-yl)-2-(2-fluorobenzyl)-1H-imidazol-4-yl)propan-2-ol] | 

Row | Structure (SMILES) | EC50 [1] [µM] | Human Microsome % Remaining [2] [%] | Maximum ABCG1 Induction (fold vs. baseline ± S.E.) ([1]; blood cells, 5 hrs post-dose) [fold vs. baseline]
10 | CC(c1c(Cl)cccc1Cl)c1nc(C(C)(C)O)cn1-c1ccc(-c2cc(F)c(CO)c(S(C)(=O)=O)c2)cc1F (centres unmarked) [Example 21, 2-{2-[1-(2,6-dichlorophenyl)ethyl]-1-[3,3′-difluoro-4′-(hydroxymethyl)-5′-(methylsulfonyl)biphenyl-4-yl]-1H-imidazol-4-yl}propan-2-ol] |  | >80 | 
